Laboratory results: patent publication US7205411B2, “Aminopyridine derivatives as mGluR5 antagonists” (Addex Pharmaceuticals SA, priority 2003, dated 2007)
Counter-ions that a name gives are not always drawn.

Row | melting point | Compound
1 | 165 to 166 °C | COc1cccc(C#Cc2nc(C)ccc2N)c1 [Example 4, (2-(3-Methoxy-phenylethynyl)-6-methyl-pyridin-3-yl)amine]
2 | 212 °C (dec.) | Cc1ccc(N)c(C#Cc2cc(F)cc(F)c2)n1.Cl [Example 7, (2-(3,5-Difluoro-phenylethynyl)-6-methyl-pyridin-3-yl)amine hydrochloride]
3 | 199 to 200 °C (dec.) | Cc1ccc(N)c(C#Cc2cccc(F)c2)n1.Cl [Example 3, (2-(3-Fluoro-phenylethynyl)-6-methyl-pyridin-3-yl)amine hydrochloride]

The next lines start with the compound.

Row | Compound | melting point
4 | Cc1cc(C)c(N)c(C#Cc2cccc(Cl)c2)n1 (as salt: hydrochloride) [Example 13, (2-(3-Chloro-phenylethynyl)-4.6-dimethyl-pyridin-3-yl)amine hydrochloride] | 204 °C
5 | Cc1ccc(N)c(C#Cc2cncc(Cl)c2)n1.Cl [Example 10, (2-(5-Chloro-pyridin-3-ylethynyl)-6-methyl-pyridin-3-yl)amine hydrochloride] | 193 °C (dec.)
6 | Cc1ccc(N)c(C#Cc2cccc(Cl)c2)n1.Cl | 195 °C (dec.)
7 | Cc1ccc(N)c(C#Cc2ccc(F)cc2)n1.Cl | 122 °C (dec.)
8 | Cc1ccc(N)c(C#Cc2cccc(C#N)c2)n1.Cl | 132.4 to 134 °C
